Assay results from patent US20220081387A1, “METHODS FOR PREPARING AMMONIUM TETRATHIOMOLYBDATE” (Alexion Pharmaceuticals, Inc., priority 2019, published 2022).

Assay: Long-term stability study of ATTM samples, determined by HPLC
Type: physicochemical
Procedure: ATTM Samples 1 and 2 were prepared essentially according to procedure in Example 1 starting with 12 kg of ammonium heptamolybdate. The isolated product was packed and stored immediately. Specifically, the samples were packaged corresponding to the packaging of the bulk material under argon in transparent anti-static polyethylene plastic bags, 90 10 10, 110 mm×170 mm, and the bags containing the samples were sealed with a plastic tie, and then subsequently packed in welded aluminium bags along with a drying agent in-between the two bags. Additional samples were packaged with ambient atmosphere in transparent anti-static polyethylene plastic bags, 90 10 10, 110 mm×170 mm. The bags containing the samples were sealed with a plastic tie, and then subsequently packed in welded aluminium bags along with a drying agent in-between the two bags.

[NH4+].[NH4+].[SH-].[SH-].[S]=[Mo]=[S] [Sample 1, ammonium tetrathiomolybdate]
(NH4)6Mo7O24 (5 °C, Air, 3 mo): <0.05 w/w % | ATTM (5 °C, Air, 3 mo): 99.2 w/w % | Dimer S6 (5 °C, Air, 3 mo): <0.05 w/w % | TM1 (5 °C, Air, 3 mo): <0.05 w/w % | TM2 (5 °C, Air, 3 mo): <0.05 w/w % | TM3 (5 °C, Air, 3 mo): 0.93 w/w % | (NH4)6Mo7O24 (5 °C, Air, 6 mo): <0.05 w/w % | ATTM (5 °C, Air, 6 mo): 98.6 w/w % | Dimer S6 (5 °C, Air, 6 mo): <0.05 w/w % | Insoluble materials (5 °C, Air, 6 mo): <0.1 w/w % | TM1 (5 °C, Air, 6 mo): <0.05 w/w % | TM2 (5 °C, Air, 6 mo): <0.05 w/w % | TM3 (5 °C, Air, 6 mo): 0.94 w/w % | (NH4)6Mo7O24 (5 °C, Air, Initial): <0.05 w/w % | ATTM (5 °C, Air, Initial): 98.8 w/w % | Dimer S6 (5 °C, Air, Initial): <0.05 w/w % | Insoluble materials (5 °C, Air, Initial): <0.1 w/w % | TM1 (5 °C, Air, Initial): <0.05 w/w % | TM2 (5 °C, Air, Initial): <0.05 w/w % | TM3 (5 °C, Air, Initial): 0.77 w/w % | (NH4)6Mo7O24 (5 °C, Ar, 3 mo): <0.05 w/w % | ATTM (5 °C, Ar, 3 mo): 99.1 w/w % | Dimer S6 (5 °C, Ar, 3 mo): <0.05 w/w % | TM1 (5 °C, Ar, 3 mo): <0.05 w/w % | TM2 (5 °C, Ar, 3 mo): <0.05 w/w % | TM3 (5 °C, Ar, 3 mo): 0.96 w/w % | (NH4)6Mo7O24 (5 °C, Ar, 6 mo): <0.05 w/w % | ATTM (5 °C, Ar, 6 mo): 99.0 w/w % | Dimer S6 (5 °C, Ar, 6 mo): <0.05 w/w % | Insoluble materials (5 °C, Ar, 6 mo): <0.1 w/w % | TM1 (5 °C, Ar, 6 mo): <0.05 w/w % | TM2 (5 °C, Ar, 6 mo): <0.05 w/w % | TM3 (5 °C, Ar, 6 mo): 0.97 w/w % | (NH4)6Mo7O24 (5 °C, Ar, Initial): <0.05 w/w % | ATTM (5 °C, Ar, Initial): 98.8 w/w % | Dimer S6 (5 °C, Ar, Initial): <0.05 w/w % | Insoluble materials (5 °C, Ar, Initial): <0.1 w/w % | TM1 (5 °C, Ar, Initial): <0.05 w/w % | TM2 (5 °C, Ar, Initial): <0.05 w/w % | TM3 (5 °C, Ar, Initial): 0.77 w/w % | (NH4)6Mo7O24 (−20 °C, Air, 3 mo): <0.05 w/w % | ATTM (−20 °C, Air, 3 mo): 99.3 w/w % | Dimer S6 (−20 °C, Air, 3 mo): <0.05 w/w % | TM1 (−20 °C, Air, 3 mo): <0.05 w/w % | TM2 (−20 °C, Air, 3 mo): <0.05 w/w % | TM3 (−20 °C, Air, 3 mo): 0.93 w/w % | (NH4)6Mo7O24 (−20 °C, Air, 6 mo): <0.05 w/w % | ATTM (−20 °C, Air, 6 mo): 99.0 w/w % | Dimer S6 (−20 °C, Air, 6 mo): <0.05 w/w % | Insoluble materials (−20 °C, Air, 6 mo): <0.1 w/w % | TM1 (−20 °C, Air, 6 mo): <0.05 w/w % | TM2 (−20 °C, Air, 6 mo): <0.05 w/w % | TM3 (−20 °C, Air, 6 mo): 0.82 w/w % | (NH4)6Mo7O24 (−20 °C, Air, Initial): <0.05 w/w % | ATTM (−20 °C, Air, Initial): 98.8 w/w % | Dimer S6 (−20 °C, Air, Initial): <0.05 w/w % | Insoluble materials (−20 °C, Air, Initial): <0.1 w/w % | TM1 (−20 °C, Air, Initial): <0.05 w/w % | TM2 (−20 °C, Air, Initial): <0.05 w/w % | TM3 (−20 °C, Air, Initial): 0.77 w/w % | (NH4)6Mo7O24 (−20 °C, Ar, 3 mo): <0.05 w/w % | ATTM (−20 °C, Ar, 3 mo): 99.5 w/w % | Dimer S6 (−20 °C, Ar, 3 mo): <0.05 w/w % | TM1 (−20 °C, Ar, 3 mo): <0.05 w/w % | TM2 (−20 °C, Ar, 3 mo): <0.05 w/w % | TM3 (−20 °C, Ar, 3 mo): 1.05 w/w % | (NH4)6Mo7O24 (−20 °C, Ar, 6 mo): <0.05 w/w % | ATTM (−20 °C, Ar, 6 mo): 99.1 w/w % | Dimer S6 (−20 °C, Ar, 6 mo): <0.05 w/w % | Insoluble materials (−20 °C, Ar, 6 mo): <0.1 w/w % | TM1 (−20 °C, Ar, 6 mo): <0.05 w/w % | TM2 (−20 °C, Ar, 6 mo): <0.05 w/w % | TM3 (−20 °C, Ar, 6 mo): 0.88 w/w % | (NH4)6Mo7O24 (−20 °C, Ar, Initial): <0.05 w/w % | ATTM (−20 °C, Ar, Initial): 98.8 w/w % | Dimer S6 (−20 °C, Ar, Initial): <0.05 w/w % | Insoluble materials (−20 °C, Ar, Initial): <0.1 w/w % | TM1 (−20 °C, Ar, Initial): <0.05 w/w % | TM2 (−20 °C, Ar, Initial): <0.05 w/w % | TM3 (−20 °C, Ar, Initial): 0.77 w/w %
